Test results taken from PubChem BioAssay (NCI).
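Where inhibition never reached the appropriate level, the endpoint shown equals the highest concentration tested. Otherwise, values were interpolated linearly from a five-concentration, 48-hour dose response in 96-well plates. TGI denotes the concentration required for complete inhibition of growth.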

Columns and labels:
Assay in all cases: DTP human tumour cell line panel, 48 h
786-0 renal = tested on: 786-0 renal
COLO 205 colon = tested on: COLO 205 colon
MDA-MB-231 breast = tested on: MDA-MB-231 breast
MDA-MB-435 = tested on: MDA-MB-435
RXF 393 renal = tested on: RXF 393 renal
SK-MEL-5 melanoma = tested on: SK-MEL-5 melanoma
SN12C renal = tested on: SN12C renal
SNB-19 CNS = tested on: SNB-19 CNS
U251 CNS = tested on: U251 CNS

Row | SMILES | TGI (786-0 renal) [µM] | TGI (COLO 205 colon) [µM] | TGI (MDA-MB-231 breast) [µM] | TGI (MDA-MB-435) [µM] | TGI (RXF 393 renal) [µM] | TGI (SK-MEL-5 melanoma) [µM] | TGI (SN12C renal) [µM] | TGI (SNB-19 CNS) [µM] | TGI (U251 CNS) [µM]
1 | c1cc2c3c(c1)[C@@H]1O[C@@H]1c1cccc(c1-3)[C@@H]1O[C@H]21 | 75 | 44.6 | 41.8 | 32.5 | 17.2 | 35.6 | 54.2 | > 100 | 33
2 | Nc1cc2ncnc(Nc3cccc(Br)c3)c2cn1 | > 100 | > 100 | > 100 | > 100 | > 100 | > 100 | > 100 | > 100 | > 100
3 | O=C1/C(=C(/Br)I)c2ccccc2-c2ccccc21 | 10.2 | 4.22 | 19.2 | 22 | 13.1 | 31.1 | 33.7 | 27 | 25.5
4 | CCOc1ccccc1N=NC1C(=O)N(C(=O)CC(=O)Nc2ccccc2OC)N=C1C (stereo not drawn) | > 100 | > 100 | > 100 | > 100 | 81.5 | > 100 | > 100 |  | 95.6
5 | CC(=O)Nc1nc(C)c(S(=O)(=O)NC(=O)N2c3ccccc3CCc3ccccc32)s1 | > 100 | > 100 | > 100 | > 100 | > 100 | > 100 | > 100 | 71.9 | > 100
6 | O=[N+]([O-])c1cccc([N+](=O)[O-])c1Cl | > 100 | 91.2 | 51.7 | 35.3 | 38.3 | 32.7 | 79.9 | 33.2 | 25.8
7 | CCCCN(CCCC)C1=Nc2ccccc2-n2c(nnc2C(=O)OCC)C1 | > 100 | 36.2 | > 100 | > 100 | 77.4 | 38.5 | > 100 | > 100 | 
8 | CCOC(=O)COC1=Nc2cc(OC)c(OC)c3nc(Cl)cc(c23)C1=O | 3.04 | 3.88 | 3.28 | 2.93 | 3.34 | 3.53 | 3.3 | 22.1 | 8.49
9 | O=C(O)Cn1ncn(NC(=O)Cc2ccccc2)c1=S | > 10 | > 10 | > 10 | > 10 |  | > 10 | > 10 | > 10 | > 10
10 | COc1ccc(OC)c(-c2cn3c(n2)sc2ccccc23)c1 | > 100 | > 100 | > 100 | > 100 | > 100 | > 100 | > 100 | > 100 | > 100
11 | O=C1/C(=C/C=C/c2ccccc2)CCC1CNc1ccc(Br)cc1 (stereo not drawn) | > 100 | 48.6 | > 100 | > 100 | > 100 | > 100 | > 100 | > 100 | > 100
12 | CCOC(=O)c1c(SCCN2CCCCC2)n(-c2ccccc2)c(=S)n(-c2ccccc2)c1=O | 28.1 | 19.9 | 38.4 | 31.5 | 25.7 | 29.7 | 37.5 | > 100 | > 68.2
13 | COc1c(-c2ccc(F)cc2)oc2cc(O)cc(O)c2c1=O | 99.2 | 36.7 | 43.9 | 93.8 |  | 30.1 | 83.6 | > 100 | 97.5
14 | Cn1c(O)c(/C=N/c2ncccn2)c(=O)[nH]c1=O | > 100 | > 100 | > 100 | > 100 |  | > 100 | > 100 | > 100 | > 100
15 | Oc1ccc(O)c(Sc2nnc(CCCCCCCCc3nnc(Sc4cc(O)ccc4O)o3)o2)c1 | 35.7 | > 100 | > 100 | 35.8 |  | > 100 | > 100 | > 100 | > 100
16 | CC(=O)NCC1OC2COC(c3ccccc3)OC2C2N=C(c3ccccc3)OC12 (stereo not drawn) | > 100 | > 100 | > 100 | > 100 | > 100 | > 100 | > 100 | > 100 | > 100
17 | CC(C)CCCC(C)[C@H]1CC[C@H]2NCCCC[C@]12C (stereo partly drawn) | 10.5 | 3.14 | 9.36 | 4.1 | 4.62 | 3.39 | 18.7 | 17.9 | 5.88
18 | O=C1/C(=C/c2cccs2)N=C(c2ccccc2)N1c1nc2ccccc2s1 | > 100 |  | > 100 | > 100 | 90.7 | > 100 | > 100 | > 100 | > 100
19 | Cn1c(=O)[nH]n(-c2ccc3ccccc3c2)c1=O | > 100 | > 100 | > 100 | > 100 | > 100 | > 100 | > 100 | > 100 | > 100
20 | S=c1oc(CCCCCCCCc2nn(CNc3ccc(Cl)cc3)c(=S)o2)nn1CNc1ccc(Cl)cc1 | > 100 | 22.2 | > 100 | > 100 | > 100 | 39.8 | > 100 | > 100 | > 100
21 | Cc1cn([C@@H]2C[C@](C)(CO)N(C)O2)c(=O)[nH]c1=O | > 100 | > 100 | > 100 | > 100 | > 100 | > 100 | > 100 | > 100 | > 100
22 | OCC1c2ccccc2-n2nc(-c3ccccc3)c(O)c21 (stereo not drawn) | 32.1 | 26.5 | > 100 | 92.2 | 31.9 | > 100 | 36.8 | > 100 | 52.8
23 | Cc1ccc(S(=O)(=O)CC2CCCn3c2c(C#N)c2ccccc23)cc1 (stereo not drawn) | > 100 | > 100 | > 100 | > 100 | > 100 | > 100 | > 100 | > 100 | > 100
24 | Cc1cn(C2CC(SCCO)C(CO)O2)c(=O)[nH]c1=O (stereo not drawn) | > 100 | > 100 | > 100 | > 100 | > 100 |  | > 100 | > 100 | > 100
